Where two headings read alike, the source gives them in different places.
Legend:
[1] = target: T1, human somatostatin receptor subtype SSTR4 (Homo sapiens, UniProt P31391); assay: Competition binding with 125I-LTT-sst-28, human somatostatin receptor subtype SSTR4
T1 construct: expressed in transfected cells; host or cells: CHO cells (membranes)
Protocol: (§1) The affinity of the compounds of the invention for the five human somatostatin receptor subtypes (SSTR1, SSTR2, SSTR3, SSTR4, and SSTR5) was determined in competition binding assays with (^125I-Tyr)-[Leu^8,DTrp^22]-somatostatin-28 (^125I-LTT-sst-28). The biological material for these experiments consisted of membranes from Chinese hamster ovary (CHO) cells stably transfected with one of the five human somatostatin receptor subtypes. Membranes (3-20 μg of total protein per sample) and trace amount of ^125I-LTT-sst-28 were incubated in 10 mM Hepes, 1 mM EDTA, 5 mM MgCl2, 5 mg/ml of BSA and 30 μg/ml bacitracin, pH 7.6 with six concentrations of the compounds. Each concentration was run in duplicate. Nonspecific binding was defined by 1 μM somatostatin-14 (sst-14) and corresponded to 5-25% of total binding. After 60 min at room temperature, incubations were terminated by rapid vacuum filtration through GF/B glass fiber filter mats (presoaked at 4° C. in 200 ml of 10 mM Hepes, 1 mM EDTA, 5 mM MgCl2, pH 7.6) and three 5 ml washes with ice-cold wash buffer (20 mM TRIS, 1 mM EDTA, 5 mM MgCl2, pH 7.4). The filters were then dried, impregnated with scintillate and their radioactivity was measured by scintillation counting. The analysis of the experiments was carried out by nonlinear least square curve fitting. Affinity constants (Ki) were calculated from the IC50 values according to the Cheng-Prusoff's equation (Cheng and Prusoff, 1973). Experiments were repeated a minimum of three times.

[2] = target: T2, human somatostatin receptor subtype SSTR2 (Homo sapiens, UniProt P30874); assay: Competition binding with 125I-LTT-sst-28, human somatostatin receptor subtype SSTR2; conditions: membranes from CHO cells stably transfected with human SSTR2, Cheng-Prusoff
T2 construct: expressed in transfected cells; host or cells: CHO cells (membranes)
Protocol: as §1, with “The analysis of the experiments was carried out by nonlinear least square curve fitting.” left out, “Experiments were repeated a minimum of three times.” left out

[3] = target: T3, human somatostatin receptor subtype SSTR1 (Homo sapiens, UniProt P30872); assay: Competition binding with 125I-LTT-sst-28, human somatostatin receptor subtype SSTR1
T3 construct: expressed in transfected cells; host or cells: CHO cells (membranes)
Protocol: as §1

[4] = target: T4, human somatostatin receptor subtype SSTR3 (Homo sapiens, UniProt P32745); assay: Competition binding with 125I-LTT-sst-28, human somatostatin receptor subtype SSTR3; conditions: membranes from CHO cells stably transfected with human SSTR3, Cheng-Prusoff
T4 construct: expressed in transfected cells; host or cells: CHO cells (membranes)
Protocol: as §1, with “The analysis of the experiments was carried out by nonlinear least square curve fitting.” left out, “Experiments were repeated a minimum of three times.” left out

[5] = target: T5, human somatostatin receptor subtype SSTR5 (Homo sapiens, UniProt P35346); assay: Competition binding with 125I-LTT-sst-28, human somatostatin receptor subtype SSTR5; conditions: membranes from CHO cells stably transfected with human SSTR5, Cheng-Prusoff
T5 construct: expressed in transfected cells; host or cells: CHO cells (membranes)
Protocol: as §1, with “The analysis of the experiments was carried out by nonlinear least square curve fitting.” left out, “Experiments were repeated a minimum of three times.” left out

[6] = same protocol, less than 300 nM, read-out: Ki for SSTR4 (bound)
[7] = membranes from CHO cells stably transfected with human SSTR4, 125I-LTT-sst-28, Cheng-Prusoff, read-out: Ki (SSTR4)
[8] = same protocol, less than 300 nM, read-out: Ki for SSTR1 (bound)

T3 sequence (P30872 whole entry): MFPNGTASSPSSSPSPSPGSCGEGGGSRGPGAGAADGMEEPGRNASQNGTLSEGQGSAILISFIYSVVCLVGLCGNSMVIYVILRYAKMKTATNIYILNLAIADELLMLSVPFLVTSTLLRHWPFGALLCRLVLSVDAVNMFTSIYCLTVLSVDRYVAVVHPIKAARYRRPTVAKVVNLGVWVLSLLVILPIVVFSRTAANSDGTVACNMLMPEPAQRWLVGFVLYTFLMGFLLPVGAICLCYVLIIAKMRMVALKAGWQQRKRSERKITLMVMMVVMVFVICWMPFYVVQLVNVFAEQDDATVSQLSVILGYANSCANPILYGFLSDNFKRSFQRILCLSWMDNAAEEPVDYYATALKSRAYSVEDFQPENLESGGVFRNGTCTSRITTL
T1 sequence (P31391 whole entry): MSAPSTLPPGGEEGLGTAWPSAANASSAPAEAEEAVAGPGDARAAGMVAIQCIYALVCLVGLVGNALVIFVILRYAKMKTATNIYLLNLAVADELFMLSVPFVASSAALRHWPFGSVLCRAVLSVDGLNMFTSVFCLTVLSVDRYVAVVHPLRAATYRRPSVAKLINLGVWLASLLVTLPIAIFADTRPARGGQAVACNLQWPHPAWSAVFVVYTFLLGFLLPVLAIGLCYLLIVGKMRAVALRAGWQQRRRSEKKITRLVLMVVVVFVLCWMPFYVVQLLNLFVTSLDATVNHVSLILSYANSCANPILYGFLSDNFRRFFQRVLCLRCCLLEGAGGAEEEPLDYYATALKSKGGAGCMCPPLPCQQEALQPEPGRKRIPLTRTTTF
T2 sequence (P30874 whole entry): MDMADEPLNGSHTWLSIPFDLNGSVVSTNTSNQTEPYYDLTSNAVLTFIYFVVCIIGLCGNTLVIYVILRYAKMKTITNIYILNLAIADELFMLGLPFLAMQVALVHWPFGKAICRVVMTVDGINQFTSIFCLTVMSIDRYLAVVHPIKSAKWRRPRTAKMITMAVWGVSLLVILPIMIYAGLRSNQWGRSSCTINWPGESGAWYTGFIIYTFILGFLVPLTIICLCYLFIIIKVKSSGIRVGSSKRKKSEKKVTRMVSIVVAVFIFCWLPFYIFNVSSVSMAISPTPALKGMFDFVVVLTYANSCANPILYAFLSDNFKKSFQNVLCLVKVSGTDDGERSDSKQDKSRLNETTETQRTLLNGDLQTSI
T4 sequence (P32745 whole entry): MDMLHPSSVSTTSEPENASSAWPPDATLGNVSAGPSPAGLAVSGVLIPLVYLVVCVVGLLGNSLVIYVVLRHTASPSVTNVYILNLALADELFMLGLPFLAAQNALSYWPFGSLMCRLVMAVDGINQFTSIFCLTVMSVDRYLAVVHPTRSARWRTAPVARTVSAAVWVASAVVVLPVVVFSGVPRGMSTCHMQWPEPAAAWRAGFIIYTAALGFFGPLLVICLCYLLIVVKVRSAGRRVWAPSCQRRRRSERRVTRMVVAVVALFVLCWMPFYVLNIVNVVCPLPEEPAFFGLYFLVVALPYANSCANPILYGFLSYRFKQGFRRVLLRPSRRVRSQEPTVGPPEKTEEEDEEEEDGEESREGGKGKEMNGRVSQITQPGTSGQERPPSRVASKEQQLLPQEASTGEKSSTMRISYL
T5 sequence (P35346 whole entry): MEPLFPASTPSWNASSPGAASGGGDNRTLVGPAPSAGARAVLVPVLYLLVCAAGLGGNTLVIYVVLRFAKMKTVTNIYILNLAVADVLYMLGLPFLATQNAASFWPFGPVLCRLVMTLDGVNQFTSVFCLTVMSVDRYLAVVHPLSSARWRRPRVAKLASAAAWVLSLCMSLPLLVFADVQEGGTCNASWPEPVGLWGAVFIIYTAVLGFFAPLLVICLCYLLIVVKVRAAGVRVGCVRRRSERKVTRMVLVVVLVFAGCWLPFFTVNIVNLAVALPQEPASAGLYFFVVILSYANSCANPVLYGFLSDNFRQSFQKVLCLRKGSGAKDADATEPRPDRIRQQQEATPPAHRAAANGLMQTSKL

Compound | Ki [1, 6] [nM] | Ki [3, 8] [nM] | other results
Cc1ccc(S(=O)(=O)N[C@@H](CCN)C(=O)NC2CCCCC2)c2ccccc12 [Compound 1, 4-amino-N-cyclohexyl-(S)-2-(N′-(4-methyl-1-naphthalenesulfonyl)amino)butanamide] | < 300 | – | –
Cc1ccc(S(=O)(=O)N[C@@H](CCN)C(=O)N[C@@H](Cc2ccccc2)C(N)=O)c2ccccc12 [Compound 2, 4-amino-N-(S)-1-carbamoyl-2-phenylethyl-(S)-2-(N′-(4-methyl-1-naphthalenesulfonyl)amino)butanamide] | – | – | Ki [2]: > 5000 nM; Ki [1, 7]: 1.2 ± 0.4 nM
Cc1ccc(S(=O)(=O)N[C@@H](CCNC(C)C)C(=O)NCc2ccccc2)c2ccccc12 [Compound 3, N-benzyl-4-(N′-isopropyl)amino-(S)-2-(N″-(4-methyl-1-naphthalenesulfonyl)amino)butanamide] | < 300 | < 300 | –
Cc1ccc(S(=O)(=O)N[C@@H](CCNC(=N)N)C(=O)NCc2ccccc2)c2ccccc12 [Compound 4, N-benzyl-4-guanidino-(S)-2-(N′-(4-methyl-1-naphthalenesulfonyl)amino)butanamide] | < 300 | – | –
Cc1ccc(S(=O)(=O)N[C@@H](CCCNC(=N)N)C(=O)N[C@@H](Cc2ccccc2)C(N)=O)c2ccccc12 [Compound 5, N-((S)-1-carbamoyl-2-phenylethyl)-5-guanidino-(S)-2-(N′-(4-methyl-1-naphthalenesulfonyl)amino)pentanamide] | < 300 | < 300 | –
Cc1ccc(S(=O)(=O)N[C@@H](CCCNC(=N)N)C(=O)N[C@H](C(N)=O)C(c2ccccc2)c2ccccc2)c2ccccc12 [Compound 6, N-((S)-1-carbamoyl-2,2-diphenylethyl)-5-guanidino-(S)-2-(N′-(4-methyl-1-naphthalenesulfonyl)amino)pentanamide] | < 300 | < 300 | –
Cc1ccc(S(=O)(=O)N[C@@H](CCCN)C(=O)N[C@@H](Cc2ccccc2)C(N)=O)c2ccccc12 [Compound 7, 5-amino-N-((S)-1-carbamoyl-2-phenylethyl)-(S)-2-(N′-(4-methyl-1-naphthalenesulfonyl)amino)pentanamide] | < 300 | < 300 | –
CCc1ccc(S(=O)(=O)N[C@@H](CCN)C(=O)N[C@@H](Cc2ccccc2)C(N)=O)c2ccccc12 [Compound 8, 4-amino-N-((S)-1-carbamoyl-2-phenylethyl)-(S)-2-(N′-(4-ethyl-1-naphthalenesulfonyl)amino)butanamide] | < 300 | – | –
Cc1ccc(S(=O)(=O)N[C@@H](CCN)C(=O)N[C@H](C(N)=O)C(c2ccccc2)c2ccccc2)c2ccccc12 [Compound 9, 4-amino-N-((S)-1-carbamoyl-2,2-diphenylethyl)-(S)-2-(N′-(4-methyl-1-naphthalenesulfonyl)amino)butanamide] | < 300 | – | –
NCC[C@H](NS(=O)(=O)c1cccc2ccccc12)C(=O)N[C@@H](Cc1ccccc1)C(N)=O [Compound 10, 4-amino-N-((S)-1-carbamoyl-2-phenylethyl)-(S)-2-(N′-(1-naphthalenesulfonyl)amino)butanamide] | < 300 | – | –
Cc1ccc(S(=O)(=O)N[C@@H](CCNC2CCCCC2)C(=O)NCc2ccccc2)c2ccccc12 [Compound 11, N-benzyl-4-N′-cyclohexylamino-(S)-2-(N″-(4-methyl-1-naphthalenesulfonyl)amino)butanamide] | – | < 300 | –
CCCCOc1ccc(S(=O)(=O)NC(CCCNC(=N)N)C(=O)NC(Cc2ccccc2)C(N)=O)cc1 [Compound 12, (S)-2-N-(4-butoxybenzenesulfonyl)amino-N′-((S)-1-carbamoyl-2-phenylethyl)-5-guanidinopentanamide] | – | < 300 | –
Cc1ccc(S(=O)(=O)N[C@@H](CCN)C(=O)N[C@H](C(N)=O)C(C)C)c2ccccc12 [Compound 13, 4-amino-N-((S)-1-carbamoyl-2-methylpropyl)-(S)-2-(N′-(4-methyl-1-naphthalenesulfonyl)amino)butanamide] | < 300 | – | –
CCc1cc(Br)ccc1S(=O)(=O)NC(CCN)C(=O)NC(Cc1ccccc1)C(N)=O [Compound 14, 4-amino-(S)-2-N-(4-bromo-2-ethylbenzenesulfonyl)-amino-N′-((S)-1-carbamoyl-2-phenylethyl)butanamide] | < 300 | – | –
Cc1ccc(S(=O)(=O)NC(CCCNC(C)C)C(=O)NC2CCCc3ccccc32)c2ccccc12 [Compound 17, 5-N-isopropylamino-(S)-2-N′-(4-methyl-1-naphthalene-sulfonyl)amino-N″-(1,2,3,4-tetrahydro-1-naphthyl)-pentanamide] | – | – | Ki [4]: > 2000 nM; Ki [2]: > 10000 nM; Ki [5]: > 10000 nM; Ki [1, 7]: 84 ± 23 nM; Ki ([3]; membranes from CHO cells stably transfected with human SSTR1, 125I-LTT-sst-28, Cheng-Prusoff, read-out: Ki (SSTR1)): 1 ± 0.4 nM

Now from value to molecule, other results behind:

Ki [1, 6] [nM] | Ki [3, 8] [nM] | Compound | other results
– | < 300 | N=C(N)NCCC[C@H](NS(=O)(=O)c1ccc2ccccc2c1)C(=O)N[C@@H](Cc1ccccc1)C(N)=O [Compound 15, N-((S)-1-carbamoyl-2-phenylethyl)-5-guanidino-(S)-2-(N′-(2-naphthalenesulfonyl)amino)pentanamide] | –
< 300 | – | N=C(N)NCCC[C@H](NS(=O)(=O)c1cccc(-c2ccccc2)c1)C(=O)N[C@@H](Cc1ccccc1)C(N)=O [Compound 16, N-((S)-1-carbamoyl-2-phenylethyl)-5-guanidino-(S)-2-(N′-(3-phenylbenzenesulfonyl)amino)pentanamide] | –
– | < 300 | Cc1ccc(S(=O)(=O)NC(CCN)C(=O)NC2CCCc3ccccc32)c2ccccc12 [Compound 18, 4-amino-(S)-2-N-(4-methyl-1-naphthalenesulfonyl)-amino-N′-(1,2,3,4-tetrahydro-1-naphthyl)butanamide] | –
< 300 | – | Cc1ccc(S(=O)(=O)N[C@@H](CCCN)C(=O)NC2(C(N)=O)Cc3ccccc3C2)c2ccccc12 [Compound 19, 5-amino-N-(2-(2-carbamoyl)indanyl)-(S)-2-(N′-(4-methyl-1-naphthalenesulfonyl)amino)pentanamide] | –
< 300 | – | Cc1ccc(S(=O)(=O)N[C@@H](CCCN)C(=O)NCCc2c[nH]c3ccccc23)c2ccccc12 [Compound 20, 5-amino-N-(2-(1H-indol-3-yl)ethyl)-(S)-2-(N′-(4-methyl-1-naphthalenesulfonyl)amino)pentanamide] | –
– | < 300 | Cc1ccc(S(=O)(=O)N[C@@H](CCCN)C(=O)N[C@@H](Cc2cccc(Cl)c2)C(N)=O)c2ccccc12 [Compound 21, 5-amino-N-((S)-1-carbamoyl-2-(3-chlorophenyl)ethyl)-(S)-2-(N′-(4-methyl-1-naphthalenesulfonyl)amino)-pentanamide] | –
– | < 300 | Cc1ccc(S(=O)(=O)NC(CCCN)C(=O)NC2(C(N)=O)CCc3ccccc3C2)c2ccccc12 [Compound 22, 5-amino-N-(2-(2-carbamoyl)-1,2,3,4-tetrahydronaphthyl)-(S)-2-(N′-(4-methyl-1-naphthalenesulfonyl)amino)-pentanamide] | –
– | < 300 | CNCC[C@H](NS(=O)(=O)c1ccc(C)c2ccccc12)C(=O)NCCc1cccc(Cl)c1 [Compound 23, N-(2-(3-chlorophenyl)ethyl)-4-N′-methylamino-(S)-2-(N″-(4-methyl-1-naphthalenesulfonyl)amino)-butanamide] | –

Reference: US7741362B2, “Somatostatin receptor 1 and/or 4 selective agonists and antagonists” (Siegfried Wurster, priority 2003, dated 2010)
